[ ]: non-standard residue; d: D form. The star is where a group is joined. Octanoyl = CCCCCCCC(=O)*; Aib = CC(C)(N)C(=O)O
Columns and labels:
[1] = tested on: Plasmopara viticola; assay: Infection by P. viticola on vine leaf discs; assay type: in vivo, Plasmopara viticola on vine leaf discs (cv. Glera); details: peptide 50 μM, 12 days after inoculation
Experimental: Infection tests were performed on vine leaf disks (cv. Glera) of 1 cm in diameter. Twenty leaf discs obtained from randomly collected leaves from different plants were placed with the lower side facing upwards on moistened sterile paper placed in Petri dishes (15 cm diameter). Approximately 0.1 mL of each aqueous solution containing the peptide (50 μM) was distributed on each leaf disc. Aqueous suspensions of P. viticola sporangia, collected from infected vine plants, were diluted to obtain 3-5×10^5 sporangia/mL and distributed on the leaf discs. The plates containing the leaf discs were incubated in the dark at room temperature (22-23° C.). The incidence was calculated 12 days after inoculation as the ratio of the number of sporulating discs to the total number of discs inoculated. Control plates contained water-treated leaf discs. Two or three plates were used for each treatment. The data obtained were statistically analysed by applying the Anova and Bonferroni-Holmes one-way test.

[2] = tested on: Botrytis cinerea; assay type: cell-based, Botrytis cinerea (strain PM10)
[3] = tested on: Pyricularia oryzae; parameters: species or system Pyricularia oryzae strain IT10 on barley leaves; details: in vivo
[4] = tested on: Fusarium graminearum; parameters: species or system Fusarium graminearum on ears of wheat; details: in vivo
[5] = tested on: Fusarium graminearum; assay type: cell-based
[6] = tested on: Pyricularia oryzae; assay type: cell-based
[7] = tested on: Pyricularia oryzae; assay type: cell-based, Pyricularia oryzae (strain IT10)
[8] = tested on: Fusarium graminearum; assay type: cell-based, Fusarium graminearum (strain 8/1)

With “1-octanoyl-Aib-Gly-Leu-Aib-Gly-Gly-Leu-Aib-Lys(HCl)-Ile-Leu-NH2 (Octanoyl-[Aib]GL[Aib]GGL[Aib]KIL-NH2; also: Lys9 as HCl salt) [SEQ. ID. No. 6]” the “incidence of Plasmopara viticola infection on vine leaf discs” value [1] was “significantly decreases the P. viticola infection”.

“1-octanoyl-Aib-Gly-Leu-Aib-Gly-Gly-Leu-Aib-Lys(HCl)-Ile-Lol [SEQ. ID. No. 5]” was tested, and the “decrease of growth of Botrytis cinerea compared to the untreated control” value [2] was “at least 95%” and the “incidence of Plasmopara viticola infection on vine leaf discs” value [1] was “significantly decreases the P. viticola infection”.

In the case of “1-octanoyl-Aib-Lys(HCl)-Leu-Aib-Lys(HCl)-Gly-Leu-Aib-Lys(HCl)-Ile-Lol [SEQ. ID. No. 1]”, the “decrease of infected (lesion) area of barley leaves compared to control leaves” value [3] is reported as “at least 95%”, the “decrease of infection (infected spikelets) in treated ears compared to untreated control ears” value [4] is reported as “at least 95%” and the “further decrease of infection compared with treatment with PEP4 and PEP4-rink” value [4] is reported as 10-30%. For the same substance, the “protection of the ear of wheat against infection caused by Fusarium graminearum” value [4] was “protects the ear of wheat against infection caused by Fusarium graminearum”, the “protection of the ear of wheat compared with the known peptide PEP4” value [4] was “greater” and the “microscopic observation of Fusarium graminearum after treatment” value [5] was “germination is inhibited and the cytoplasm is agglutinated”. For the same substance, the “microscopic observation of Pyricularia oryzae spores after treatment” value [6] was “germination is inhibited and the cytoplasm is agglutinated” and the “viability of Pyricularia oryzae spores (autofluorescence of agglutinated cytoplasm)” value [6] was “the cells are no longer viable”.

In the case of “1-octanoyl-Leu-Aib-Lys(HCl)-Ile-Leu-NH2 [SEQ. ID. No. 10]”, the “decrease of growth of Pyricularia oryzae compared to the untreated control” value [7] is reported as “at least 95%”, the “decrease of growth of Botrytis cinerea compared to the untreated control” value [2] is reported as “at least 95%” and the “decrease of growth of Fusarium graminearum compared to the untreated control” value [8] is reported as “at least 95%”.
